According to patent US8088815B2, “Spiroindolinone pyrrolidines” (Hoffman-La Roche Inc., priority 2009, dated 2012):
pIC50: −log10 of the molar value.

Molecular target: interaction between p53 and MDM2 proteins (Homo sapiens, UniProt Q00987)
Test: HTRF assay of inhibition of the p53-MDM2 interaction (GST-MDM2 / biotinylated p53 peptide)
Format: binding
Details: recombinant GST-tagged MDM2 and biotinylated p53 peptide, bsa:0.02%

Sequence of interaction between p53 and MDM2 proteins (Q00987 whole entry): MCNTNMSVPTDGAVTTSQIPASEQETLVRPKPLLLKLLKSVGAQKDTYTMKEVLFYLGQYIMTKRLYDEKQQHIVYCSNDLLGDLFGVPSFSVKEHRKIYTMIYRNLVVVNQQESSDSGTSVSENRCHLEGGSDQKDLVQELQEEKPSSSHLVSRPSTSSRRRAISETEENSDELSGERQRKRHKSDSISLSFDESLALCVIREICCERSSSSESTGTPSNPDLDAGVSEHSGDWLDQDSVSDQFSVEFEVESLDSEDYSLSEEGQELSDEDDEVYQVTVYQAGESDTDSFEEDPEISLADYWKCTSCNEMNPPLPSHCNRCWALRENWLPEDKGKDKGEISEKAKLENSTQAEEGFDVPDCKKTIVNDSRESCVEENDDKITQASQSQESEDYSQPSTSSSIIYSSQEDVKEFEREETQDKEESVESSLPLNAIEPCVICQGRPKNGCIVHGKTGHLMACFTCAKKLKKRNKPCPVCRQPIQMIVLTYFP

| pIC50 | SMILES |
| --- | --- |
| 7.85 | CC(C)(C)C[C@@H]1N[C@@H](C(=O)Nc2ccc3sc(C(=O)O)cc3c2)[C@H](c2cccc(Cl)c2F)[C@]12C(=O)Nc1cc(Cl)ccc12 (racemic) [Example 213, rac-5-{[(2′S,3′R,4′S,5′R)-6-chloro-4′-(3-chloro-2-fluoro-phenyl)-2′-(2,2-dimethyl-propyl)-2-oxo-1,2-dihydro-spiro[indole-3,3′-pyrrolidine]-5′-carbonyl]amino}-benzo[b]thiophene-2-carboxylic acid] |
| 7.70 | COC(=O)c1cc(OC)c(NC(=O)[C@@H]2N[C@@H](CC(C)(C)C)[C@@]3(C(=O)Nc4cc(Cl)ccc43)[C@H]2c2cccc(Cl)c2F)cc1F (racemic) [Example 214, rac-4-{[(2′S,3′R,4′S,5′R)-6-chloro-4′-(3-chloro-2-fluoro-phenyl)-2′-(2,2-dimethyl-propyl)-2-oxo-1,2-dihydro-spiro[indole-3,3′-pyrrolidine]-5′-carbonyl]amino}-2-fluoro-5-methoxy-benzoic acid methyl ester] |
| 7.96 | COc1cc(C(=O)O)c(F)cc1NC(=O)[C@@H]1N[C@@H](CC(C)(C)C)[C@@]2(C(=O)Nc3cc(Cl)ccc32)[C@H]1c1cccc(Cl)c1F (racemic) [Example 215, rac-4-{[(2′S,3′R,4′S,5′R)-6-chloro-4′-(3-chloro-2-fluoro-phenyl)-2′-(2,2-dimethyl-propyl)-2-oxo-1,2-dihydro-spiro[indole-3,3′-pyrrolidine]-5′-carbonyl]-amino}-2-fluoro-5-methoxy-benzoic acid] |
| 7.89 | CCOC(=O)CNc1ccc(NC(=O)[C@@H]2N[C@@H](CC(C)(C)C)[C@@]3(C(=O)Nc4cc(Cl)ccc43)[C@H]2c2cccc(Cl)c2F)cc1 (racemic) [Example 217, rac-(4-{[(2′S,3′R,4′S,5′R)-6-chloro-4′-(3-chloro-2-fluoro-phenyl)-2′-(2,2-dimethyl-propyl)-2-oxo-1,2-dihydro-spiro[indole-3,3′-pyrrolidine]-5′-carbonyl]-amino}-phenylamino)-acetic acid ethyl ester] |
| 7.80 | CC(C)(C)C[C@@H]1N[C@@H](C(=O)Nc2ccc(NCC(=O)O)cc2)[C@H](c2cccc(Cl)c2F)[C@]12C(=O)Nc1cc(Cl)ccc12 (racemic) [Example 218, rac-(4-{[(2′S,3′R,4′S,5′R)-6-chloro-4′-(3-chloro-2-fluoro-phenyl)-2′-(2,2-dimethyl-propyl)-2-oxo-1,2-dihydro-spiro[indole-3,3′-pyrrolidine]-5′-carbonyl]amino}-phenylamino)-acetic acid] |
| 7.89 | CCOC(=O)Cc1ccc(NC(=O)[C@@H]2N[C@@H](CC(C)(C)C)[C@@]3(C(=O)Nc4cc(Cl)ccc43)[C@H]2c2cccc(Cl)c2F)cc1 (racemic) [Example 219, rac-(4-{[(2′S,3′R,4′S,5′R)-6-chloro-4′-(3-chloro-2-fluoro-phenyl)-2′-(2,2-dimethyl-propyl)-2-oxo-1,2-dihydro-spiro[indole-3,3′-pyrrolidine]-5′-carbonyl]amino}-phenyl)-acetic acid ethyl ester] |
| 7.82 | CC(C)(C)C[C@@H]1N[C@@H](C(=O)Nc2ccc(CC(=O)O)cc2)[C@H](c2cccc(Cl)c2F)[C@]12C(=O)Nc1cc(Cl)ccc12 (racemic) [Example 220, rac-(4-{[(2′S,3′R,4′S,5′R)-6-chloro-4′-(3-chloro-2-fluoro-phenyl)-2′-(2,2-dimethyl-propyl)-2-oxo-1,2-dihydro-spiro[indole-3,3′-pyrrolidine]-5′-carbonyl]-amino}-phenyl)-acetic acid] |
| 8.22 | COc1cc(OCC[S+](C)[O-])ccc1NC(=O)[C@@H]1N[C@@H](CC(C)(C)C)[C@@]2(C(=O)Nc3cc(Cl)ccc32)[C@H]1c1cccc(Cl)c1F (single isomer, unassigned) [Example 171, chiral (2′S,3′R,4′S,5′R)-6-chloro-4′-(3-chloro-2-fluoro-phenyl)-2′-(2,2-dimethyl-propyl)-2-oxo-1,2-dihydro-spiro[indole-3,3′-pyrrolidine]-5′-carboxylic acid [4-(2-methanesulfinyl-ethoxy)-2-methoxy-phenyl]-amide] |
| 8.40 | CC(C)(C)C[C@@H]1N[C@@H](C(=O)Nc2ccc(C(N)=O)cc2)[C@H](c2cccc(Cl)c2F)[C@]12C(=O)Nc1cc(Cl)ccc12 [Example 9, chiral (2′S,3′R,4′S,5′R)-6-chloro-4′-(3-chloro-2-fluoro-phenyl)-2′-(2,2-dimethyl-propyl)-2-oxo-1,2-dihydro-spiro[indole-3,3′-pyrrolidine]-5′-carboxylic acid (4-carbamoyl-phenyl)-amide] |
| 8.22 | CC(=O)c1ccc(NC(=O)[C@@H]2N[C@@H](CC(C)(C)C)[C@@]3(C(=O)Nc4cc(Cl)ccc43)[C@H]2c2cccc(Cl)c2F)cc1 [Example 12, chiral (2′S,3′R,4′S,5′R)-6-chloro-4′-(3-chloro-2-fluoro-phenyl)-2′-(2,2-dimethyl-propyl)-2-oxo-1,2-dihydro-spiro[indole-3,3′-pyrrolidine]-5′-carboxylic acid (4-acetyl-phenyl)-amide] |
| 8.40 | COc1cc(NC(=O)[C@@H]2N[C@@H](CC(C)(C)C)[C@@]3(C(=O)Nc4cc(Cl)ccc43)[C@H]2c2cccc(Cl)c2F)ccc1C(=O)O [Example 17, chiral 4-{[(2′S,3′R,4′S,5′R)-6-chloro-4′-(3-chloro-2-fluoro-phenyl)-2′-(2,2-dimethyl-propyl)-2-oxo-1,2-dihydro-spiro[indole-3,3′-pyrrolidine]-5′-carbonyl]-amino}-2-methoxy-benzoic acid] |
| 8.15 | CC(C)(C)C[C@@H]1N[C@@H](C(=O)Nc2ccc(OCCO)cc2)[C@H](c2cccc(Cl)c2F)[C@]12C(=O)Nc1cc(Cl)ccc12 [Example 20, chiral (2′S,3′R,4′S,5′R)-6-chloro-4′-(3-chloro-2-fluoro-phenyl)-2′-(2,2-dimethyl-propyl)-2-oxo-1,2-dihydro-spiro[indole-3,3′-pyrrolidine]-5′-carboxylic acid [4-(2-hydroxy-ethoxy)-phenyl]-amide] |
| 8.30 | COc1cc(NC(=O)[C@@H]2N[C@@H](CC(C)(C)C)[C@@]3(C(=O)Nc4cc(Cl)ccc43)[C@H]2c2cccc(Cl)c2F)ccc1C(N)=O [Example 23, chiral (2′S,3′R,4′S,5′R)-6-chloro-4′-(3-chloro-2-fluoro-phenyl)-2′-(2,2-dimethyl-propyl)-2-oxo-1,2-dihydro-spiro[indole-3,3′-pyrrolidine]-5′-carboxylic acid (4-carbamoyl-3-methoxy-phenyl)-amide] |
| 8.22 | CC(C)(C)C[C@@H]1N[C@@H](C(=O)Nc2ccc(C(N)=O)c(Cl)c2)[C@H](c2cccc(Cl)c2F)[C@]12C(=O)Nc1cc(Cl)ccc12 [Example 26, chiral (2′S,3′R,4′S,5′R)-6-chloro-4′-(3-chloro-2-fluoro-phenyl)-2′-(2,2-dimethyl-propyl)-2-oxo-1,2-dihydro-spiro[indole-3,3′-pyrrolidine]-5′-carboxylic acid (4-carbamoyl-3-chloro-phenyl)-amide] |
| 8.30 | CN(C)C(=O)c1ccc(NC(=O)[C@@H]2N[C@@H](CC(C)(C)C)[C@@]3(C(=O)Nc4cc(Cl)ccc43)[C@H]2c2cccc(Cl)c2F)cc1 [Example 35, chiral (2′S,3′R,4′S,5′R)-6-chloro-4′-(3-chloro-2-fluoro-phenyl)-2′-(2,2-dimethyl-propyl)-2-oxo-1,2-dihydro-spiro[indole-3,3′-pyrrolidine]-5′-carboxylic acid (4-dimethylcarbamoyl-phenyl)-amide] |
| 8.22 | CC(C)(C)C[C@@H]1N[C@@H](C(=O)Nc2ccc(C(N)=O)cc2)[C@H](c2cccc(Cl)c2F)[C@]12C(=O)Nc1cc(Cl)c(F)cc12 [Example 50, chiral (2′S,3′R,4′S,5′S)-6-chloro-4′-(3-chloro-2-fluoro-phenyl)-2′-(2,2-dimethyl-propyl)-5-fluoro-2-oxo-1,2-dihydro-spiro[indole-3,3′-pyrrolidine]-5′-carboxylic acid (4-carbamoyl-phenyl)-amide] |
| 8.15 | CC(C)(C)C[C@@H]1N[C@@H](C(=O)Nc2ccc(C(N)=O)cc2F)[C@H](c2cccc(Cl)c2F)[C@]12C(=O)Nc1cc(Cl)ccc12 [Example 54, chiral (2′S,3′R,4′S,5′R)-6-chloro-4′-(3-chloro-2-fluoro-phenyl)-2′-(2,2-dimethyl-propyl)-2-oxo-1,2-dihydro-spiro[indole-3,3′-pyrrolidine]-5′-carboxylic acid (4-carbamoyl-2-fluoro-phenyl)-amide] |
| 8.30 | COc1cc(C(N)=O)ccc1NC(=O)[C@@H]1N[C@@H](CC(C)(C)C)[C@@]2(C(=O)Nc3cc(Cl)ccc32)[C@H]1c1cccc(Cl)c1F [Example 60, chiral (2′S,3′R,4′S,5′R)-6-chloro-4′-(3-chloro-2-fluoro-phenyl)-2′-(2,2-dimethyl-propyl)-2-oxo-1,2-dihydro-spiro[indole-3,3′-pyrrolidine]-5′-carboxylic acid (4-carbamoyl-2-methoxy-phenyl)-amide] |
| 8.22 | CC(C)(C)C[C@@H]1N[C@@H](C(=O)Nc2ccc(C(N)=O)cc2)[C@H](c2cccc(Cl)c2)[C@]12C(=O)Nc1cc(Cl)ccc12 [Example 65B, chiral (2′S,3′R,4′R,5′R)-6-chloro-4′-(3-chloro-phenyl)-2′-(2,2-dimethyl-propyl)-2-oxo-1,2-dihydro-spiro[indole-3,3′-pyrrolidine]-5′-carboxylic acid (4-carbamoyl-phenyl)-amide] |
| 8.22 | CC(C)(C)C[C@@H]1N[C@@H](C(=O)Nc2ccc(C(N)=O)cc2)[C@H](c2cccc(Cl)c2F)[C@]12C(=O)Nc1cc(Cl)cc(F)c12 [Example 74, chiral (2′S,3′R,4′S,5′R)-6-chloro-4′-(3-chloro-2-fluoro-phenyl)-2′-(2,2-dimethyl-propyl)-4-fluoro-2-oxo-1,2-dihydro-spiro[indole-3,3′-pyrrolidine]-5′-carboxylic acid (4-carbamoyl-phenyl)-amide] |
| 8.30 | COc1cc(C(N)=O)ccc1NC(=O)[C@@H]1N[C@@H](CC(C)(C)C)[C@@]2(C(=O)Nc3cc(Cl)cc(F)c32)[C@H]1c1cccc(Cl)c1F [Example 77, chiral (2′S,3′R,4′S,5′R)-6-chloro-4′-(3-chloro-2-fluoro-phenyl)-2′-(2,2-dimethyl-propyl)-4-fluoro-2-oxo-1,2-dihydro-spiro[indole-3,3′-pyrrolidine]-5′-carboxylic acid (4-carbamoyl-2-methoxy-phenyl)-amide] |
